Results as given in US10493056B2, “Method of use of diterpenoid derivatives as anticancer agents” (Hong Kong Baptist University, priority 2016, dated 2019).
≈ marks a conversion by molar mass, not a printed value.

Key:
[1] = system: PANC-1 human pancreatic ductal adenocarcinoma cell line; test: sulforhodamine B anti-proliferative assay, PANC-1; assay type: cell-based; conditions: PANC-1, 48 hours incubation, SRB; for IC50: Homo sapiens, read-out: Anti-proliferative activity, IC50 (concentration required to inhibit cell growth by 50%)
Description: (§1) Human colorectal carcinoma HCT-116 and HT-29 cells are routinely maintained in McCoy's 5A medium (Gibco) whereas human melanoma A375 cells and human pancreatic adenocarcinoma PANC-1 cells are cultured in DMEM (Gibco) supplemented with 10% fetal bovine serum (Gibco), 1% penicillin-streptomycin (Gibco) in a 5% CO2, 95% air humidified atmosphere at 37° C.
(§2) For the sulforhodamine B assay, different carcinoma cells were seeded in 96-well plates at a density of 5×10^3 cells/well and incubated with serial dilutions of ent-kaurene diterpenoids FA, FA1, FA2, FA3, FA4 or PA for 48 hours. After incubation, cells were treated with 50% trichloroacetic acid at 4° C. for at least 30 minutes for protein fixing. Cells were then washed with water 4 times prior to a complete dry down of the culture plate. To each well, 100 μL of 0.4% sulforhodamine B in 1% acetic acid was added. After 30-minute incubation at room temperature, cells were washed with 1% acetic acid 4 times. Fixed proteins were fully solubilized with 10 mM Tris base solution (pH 10, 200 μL/well). Spectrophotometric absorbance of samples were measured at 515 nm using a microplate reader (Bio-rad).

[2] = system: A375 human melanoma cell line; test: sulforhodamine B anti-proliferative assay, A375; assay type: cell-based; conditions: A375, 48 hours incubation, SRB; for IC50: Homo sapiens, A-375, read-out: Anti-proliferative activity, IC50 (concentration required to inhibit cell growth by 50%)
Description: as §1, §2

[3] = system: HCT-116 human colorectal carcinoma cell line; test: sulforhodamine B anti-proliferative assay, HCT-116; assay type: cell-based; conditions: HCT-116, 48 hours incubation, SRB; for IC50: Homo sapiens, read-out: Anti-proliferative activity, IC50 (concentration required to inhibit cell growth by 50%)
Description: as §1, §2

[4] = system: HT-29 human colorectal carcinoma cell line; test: sulforhodamine B anti-proliferative assay, HT-29; assay type: cell-based; conditions: HT-29, 48 hours incubation, SRB; for IC50: Homo sapiens, read-out: Anti-proliferative activity, IC50 (concentration required to inhibit cell growth by 50%)
Description: as §1, §2

[5] = system: HCT-116 colon carcinoma cell-bearing nude mice; test: HCT-116 xenograft experiment in nude mice; assay type: in vivo, male BALB/c nude mice; conditions: for growth of xenograft tumor in terms of volume: 20 mg/kg i.p. every other day for 21 days, compared to paclitaxel 10 mg/kg (FIG. 4, FIG. 6)
Description: For the xenograft experiment, HCT-116 cells were implanted subcutaneously in the right and left flanks (1×10^6 cells in 100 μL) of male BALB/c nude mice (n=10/group), which were SPF class and aged 6-7 weeks old weighing between 20 g-25 g. Tumor size was monitored by measuring two perpendicular diameters with a caliper every other day. When tumors were formed to approximately 100 mm^3 seven days after the injection of HCT-116 cells, FA3 or PA was administered (20 mg/kg, every other day by intraperitoneal injection for a total of 21 days). To the paclitaxel group, injection of paclitaxel was given at 10 mg/kg to the nude mice whilst the vehicle group merely received the 2.5% EtOH and Cremphor EL solution, which was the dissolving solution for FA3, PA and paclitaxel. Tumor volume and body weight of mice were recorded at indicated time points during the course of experiment. Tumor volume was calculated as volume=length×width^2×0.5. Weight of tumor xenograft was assessed at the time of sacrificed.
The data are presented as mean±standard error of the mean (S.E.M.). Statistical differences among the experimental groups were tested by one-way analysis of variance (ANOVA). P-value<0.05 was considered as statistically significant.

HCT-116 cells = test: flow cytometric annexin V-FITC/propidium iodide apoptosis assay; assay type: cell-based, human; conditions: HCT-116, 0.25, 0.5 and 1.0 μg/mL for 48 hours, concentration-dependent (FIG. 2)
Description: From the flow cytometric analysis, the staining percentage of annexin V/FITC and propidium iodide (PI) is detected as percentage at Q1: necrosis (upper left quarter); Q2: late apoptosis (upper right quarter); Q3: live (lower left quarter); Q4: early apoptosis (lower right quarter).
For the flow cytometric assay, HCT-116 cells were seeded in 6-well plates at a density of 1×10^5 cells/well and incubated with serial dilutions of FA3 for 48 hours. Cells were collected by centrifugation, re-suspended in 500 μL of binding buffer containing 5 μL of propidium iodide and 5 μL of annexin V-FITC, and incubated for 15 minutes in dark. Signals of the cell suspension were then analyzed using a flow cytometer (BD) for apoptotic events.

SMILES | Anti-proliferative activity, IC50 (concentration required to inhibit cell growth by 50%) [1] [µg/mL] | Anti-proliferative activity, IC50 (concentration required to inhibit cell growth by 50%) [2] [µg/mL] | Anti-proliferative activity, IC50 (concentration required to inhibit cell growth by 50%) [3] [µg/mL] | Anti-proliferative activity, IC50 (concentration required to inhibit cell growth by 50%) [4] [µg/mL] | growth of xenograft tumor in terms of volume [5] | growth of xenograft tumor in terms of weight ([5]; 20 mg/kg i.p. every other day, day 21, compared to paclitaxel 10 mg/kg (FIG. 3)) | change of body weight ([5]; 21-day administration, tumor-bearing nude mice (FIG. 5)) | IC50 [1] [µg/mL] | IC50 [2] [µg/mL] | IC50 [3] [µg/mL] | degree of apoptosis (HCT-116 cells) | IC50 [4] [µg/mL]
C=C1C(=O)[C@@]23C(O)C[C@@H]4C(C)(C)CCCC4(COC(C)=O)[C@@H]2[C@@H](O)C[C@@H]1[C@H]3O (stereo partly shown) [FA, flexicaulin A, reference compound] | 1.024 | 1.624 | 0.7215 | 0.9732 | – | – | – | – | – | – | – | –
C=C1C(=O)[C@@]23[C@H](O)C[C@@H]4C(C)(C)CCC[C@@]4(COC(C)=O)[C@@H]2C(=O)C[C@@H]1[C@H]3O [FA3] | – | – | – | – | more sufficiently restrained | more sufficiently restrained | does not lead to a significant loss of body weight | 0.413 (≈ 1.06 µM) | 0.668 (≈ 1.71 µM) | 0.274 (≈ 0.701 µM) | Substantial increase in the degree of apoptosis | 0.424 (≈ 1.09 µM)
C=C1C(=O)[C@@]23[C@@H]4OC(C)(C)O[C@@H]2C[C@@H]2C(C)(C)CCC[C@@]2(COC(C)=O)[C@@H]3C(=O)C[C@@H]14 [FA2] | – | – | – | – | – | – | – | > 2 | > 2 | > 2 | – | > 2
C=C1C(=O)[C@@]23[C@@H]4OC(C)(C)O[C@@H]2C[C@@H]2C(C)(C)CCC[C@]25CO[C@](O)(C[C@@H]14)[C@@H]53 [FA4] | – | – | – | – | – | – | – | > 2 | > 2 | 0.98 (≈ 2.52 µM) | – | > 2
C=C1C(=O)[C@]23[C@H](O)C[C@@H]4C(C)(C)CCC[C@]45CO[C@](O)(C[C@@H]1[C@H]2O)[C@@H]53 [PA, pseudoirroratin A, reference compound] | 0.4396 | 0.8737 | 0.2702 | 0.4194 | not as efficient as paclitaxel | – | – | – | – | – | – | –
